This is an account of results in patent publication US12227501B2, “3-amino-2-[2-(acylamino)pyridin-4-yl]-1,5,6,7-tetrahydro-4h-pyrrolo[3,2-c]pyridin-4-one as CSNK1 inhibitors” (Bayer Aktiengesellschaft, priority 2019, dated 2025).

What all share (format): biochemical
Assay [1] addresses T1, human CSNK1A1 (Homo sapiens (Human), UniProt P48729). The assay is described as follows: CSNK1A1 Assay 2 (ADP-Glo, 1 μM ATP). To be noted: substrate biotin-Ahx-KRRRAL-pS-VASLPGL, read-out: CSNK1A1 Assay 2 IC50 [mol/l] (median). The essentials: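 Full-length human CSNK1A1 as an N-terminal GST fusion (baculovirus/insect cells) with biotinylated peptide substrate biotin-Ahx-KRRRAL-pS-VASLPGL and 1 μM ATP, in HEPES pH 7.5 buffer. Compounds were pre-incubated with enzyme (~0.0375 ng/μL) for 15 min at 22 °C. Generated ADP was read by ADP-Glo luminescence as the activity measure.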
(ADP-Glo first removes unused ATP, then detects ADP through luciferase.)

In assay [2] the target is T1, human CSNK1A1. The assay is described as follows: CSNK1A1 High ATP Assay (ADP-Glo, 1 mM ATP). To be noted: read-out: CSNK1A1 high ATP assay IC50 [mol/l] (median). In a few lines: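 GST-tagged full-length human CSNK1A1 from baculovirus-infected insect cells (typically about 0.4 ng/μL), pre-incubated with compound 15 min at 22 °C. Reaction with biotinylated peptide biotin-Ahx-KRRRAL-pS-VASLPGL at 1 mM ATP. ADP formed read by ADP-Glo luminescence.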

In assay [3] the target is human CSNK1D (Homo sapiens (Human), UniProt P48730). The assay is described as follows: CSNK1D Assay (ADP-Glo, 1 μM ATP). The note with it: read-out: CSNK1D IC50 [mol/l] (median). The essentials: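 GST-tagged full-length human CSNK1D from baculovirus-infected insect cells, typically ~0.5 ng/μL, with biotinylated peptide substrate and 1 μM ATP in HEPES pH 7.5 buffer. Compound is preincubated with enzyme 15 min at 22 °C. ADP formed is quantified by ADP-Glo luminescence.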

For assay [4], the target named is wild-type Epidermal Growth Factor Receptor (EGFR) (Homo sapiens (Human), UniProt P00533). Put plainly: WT-EGFR Kinase Assay (TR-FRET, 2 mM ATP).
[5] abbreviates: EGFR Wildtyp- 2 mM ATP IC50 [mol/l] (median).
Where [6] appears, read: read-out: EGFR Wildtyp- 2 mM ATP IC50 [mol/l] (median).

Where “and” joins values, the source holds several entries; their conditions need not be identical. Equal values may be shown once. Read-outs that look alike come from different tables or passages of the source.

Sequence of human CSNK1D (P48730 whole entry): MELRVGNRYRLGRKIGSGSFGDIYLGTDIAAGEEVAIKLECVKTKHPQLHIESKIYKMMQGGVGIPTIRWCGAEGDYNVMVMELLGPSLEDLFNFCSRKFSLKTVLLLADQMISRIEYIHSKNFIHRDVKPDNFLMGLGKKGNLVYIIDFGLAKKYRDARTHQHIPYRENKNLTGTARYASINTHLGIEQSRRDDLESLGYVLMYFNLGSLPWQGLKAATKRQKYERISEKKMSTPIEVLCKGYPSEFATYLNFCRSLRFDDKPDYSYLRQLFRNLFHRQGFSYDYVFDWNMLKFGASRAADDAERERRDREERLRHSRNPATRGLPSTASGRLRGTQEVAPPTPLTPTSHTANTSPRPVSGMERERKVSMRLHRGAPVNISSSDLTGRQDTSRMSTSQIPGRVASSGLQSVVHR
Sequence of wild-type Epidermal Growth Factor Receptor (EGFR) (P00533 669-1210): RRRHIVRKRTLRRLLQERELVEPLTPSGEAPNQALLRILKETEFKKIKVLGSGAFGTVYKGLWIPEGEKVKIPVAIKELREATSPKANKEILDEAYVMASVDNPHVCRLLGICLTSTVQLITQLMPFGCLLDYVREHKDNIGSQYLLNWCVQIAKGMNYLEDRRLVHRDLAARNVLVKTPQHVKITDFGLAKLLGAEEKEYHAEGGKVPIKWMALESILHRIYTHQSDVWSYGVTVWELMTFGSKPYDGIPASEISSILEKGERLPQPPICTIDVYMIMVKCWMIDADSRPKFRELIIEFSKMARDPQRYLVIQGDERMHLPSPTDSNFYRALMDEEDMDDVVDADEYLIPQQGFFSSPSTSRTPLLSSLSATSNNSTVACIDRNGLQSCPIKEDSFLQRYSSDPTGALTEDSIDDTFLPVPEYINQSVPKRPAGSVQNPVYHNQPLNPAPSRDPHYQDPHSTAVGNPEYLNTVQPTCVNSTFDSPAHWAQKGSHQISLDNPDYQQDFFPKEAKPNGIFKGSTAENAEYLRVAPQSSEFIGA
T1 sequence (P48729 whole entry, the tested form may be a part): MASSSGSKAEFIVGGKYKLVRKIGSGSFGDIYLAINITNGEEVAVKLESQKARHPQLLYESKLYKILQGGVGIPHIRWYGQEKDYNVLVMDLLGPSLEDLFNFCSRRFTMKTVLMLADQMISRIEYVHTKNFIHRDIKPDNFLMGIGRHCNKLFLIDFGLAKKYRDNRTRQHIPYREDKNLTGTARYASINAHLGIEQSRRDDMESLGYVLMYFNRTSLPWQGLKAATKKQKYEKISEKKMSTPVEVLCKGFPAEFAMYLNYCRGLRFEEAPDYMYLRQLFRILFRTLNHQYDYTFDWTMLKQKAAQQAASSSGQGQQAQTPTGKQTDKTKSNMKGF

On to `CC1(C)Cc2[nH]c(-c3ccnc(NC(=O)C(CC(F)F)c4ccc(F)cc4)c3)c(Nc3cccc(F)n3)c2C(=O)N1` (single isomer, unassigned; enantiomer 1) [Example 129, 4,4-difluoro-2-(4-fluorophenyl)-N-(4-{3-[(6-fluoropyridin-2-yl)amino]-6,6-dimethyl-4-oxo-4,5,6,7-tetrahydro-1H-pyrrolo[3,2-c]pyridin-2-yl}pyridin-2-yl)butanamide (Enantiomer 1)], for which the IC50 in assay [1] was 3.39 nM; in assay [2], 6.37 nM; in assay [3], 5.4 nM; in assay [4] (setting [5]), over 20000 nM.

For the compound `Cc1ccccc1Nc1c(-c2ccnc(NC(=O)C(C)c3ccc(F)cc3)c2)[nH]c2c1C(=O)NC(C)(C)C2` (single isomer, unassigned; enantiomer 1) [Example 133, (−)-N-{4-[6,6-dimethyl-3-(2-methylanilino)-4-oxo-4,5,6,7-tetrahydro-1H-pyrrolo[3,2-c]pyridin-2-yl]pyridin-2-yl}-2-(4-fluorophenyl)propanamide (Enantiomer 1)], the IC50 in assay [1] was 197 nM; in assay [2], over 5710 nM; in assay [3] it was 280 nM; in assay [4] (setting [5]) it was 405 nM.

For `Cc1ccccc1Nc1c(-c2ccnc(NC(=O)C(CC(F)F)c3ccc(F)cc3)c2)[nH]c2c1C(=O)NC(C)(C)C2` (single isomer, unassigned; enantiomer 1) [Example 136, N-{4-[6,6-dimethyl-3-(2-methylanilino)-4-oxo-4,5,6,7-tetrahydro-1H-pyrrolo[3,2-c]pyridin-2-yl]pyridin-2-yl}-4,4-difluoro-2-(4-fluorophenyl)butanamide (Enantiomer 1)], the IC50 was 13.7 nM in assay [1], 45.6 nM in assay [2], 45.3 nM in assay [3] and over 20000 nM in assay [4] (setting [5]).

As for `CC1(C)Cc2[nH]c(-c3ccnc(NC(=O)C(CN)c4ccc(F)cc4)c3)c(Nc3ccccc3)c2C(=O)N1` (single isomer, unassigned; enantiomer 1) [Example 140, 3-amino-N-[4-(3-anilino-6,6-dimethyl-4-oxo-4,5,6,7-tetrahydro-1H-pyrrolo[3,2-c]pyridin-2-yl)pyridin-2-yl]-2-(4-fluorophenyl)propanamide (Enantiomer 1)], the IC50 is 4.1 nM in assay [1], 56.9 nM in assay [2], 9.95 nM in assay [3] and over 20000 nM in assay [4] (setting [5]).

For `Cc1ccccc1Nc1c(-c2ccnc(NC(=O)C(CC(F)F)c3ccc(F)cc3)c2)[nH]c2c1C(=O)NC1(CCC1)C2` (single isomer, unassigned; enantiomer 1) [Example 144, (−)-4,4-difluoro-2-(4-fluorophenyl)-N-{4-[3′-(2-methylanilino)-4′-oxo-1′,4′,5′,7′-tetrahydrospiro[cyclobutane-1,6′-pyrrolo[3,2-c]pyridin]-2′-yl]pyridin-2-yl}butanamide-(Enantiomer 1)], the IC50 was 80.7 nM in assay [1], 5060 nM in assay [2], 82 nM in assay [3] and over 20000 nM in assay [4] (setting [5]).

As for `O=C1NC2(CC2)Cc2[nH]c(-c3ccnc(NC(=O)C(CC(F)F)c4ccc(F)cc4)c3)c(Nc3ccccc3)c21` (single isomer, unassigned; enantiomer 1) [Example 148, N-[4-(3′-anilino-4′-oxo-1′,4′,5′,7′-tetrahydrospiro[cyclopropane-1,6′-pyrrolo[3,2-c]pyridin]-2′-yl)pyridin-2-yl]-4,4-difluoro-2-(4-fluorophenyl)butanamide (Enantiomer 1)], the IC50 in assay [1] came to 8.82 nM; in assay [2], 12.8 nM; in assay [3] it was 8.31 nM; in assay [4] (setting [5]), 3400 nM.

Regarding `CC(C(=O)Nc1cc(-c2[nH]c3c(c2Nc2ccccc2)C(=O)N(C)C2(CCC2)C3)ccn1)c1ccc(F)cc1` (single isomer, unassigned; enantiomer 1) [Example 158, (−)-N-[4-(3′-anilino-5′-methyl-4′-oxo-1′,4′,5′,7′-tetrahydrospiro[cyclobutane-1,6′-pyrrolo[3,2-c]pyridin]-2′-yl)pyridin-2-yl]-2-(4-fluorophenyl)propanamide (Enantiomer 1)], the IC50 is 239 nM and 263 nM and 52.5 nM and 67.7 nM in assay [1]; > 1630 nM and 5570 nM in assay [2]; 188 nM in assay [3]; over 20000 nM in assay [4] (setting [5]).

For `CC1(C)Cc2[nH]c(-c3ccnc(NC(=O)C(CC(F)F)c4ccc(F)cc4)c3)c(Nc3cccc(F)c3)c2C(=O)N1` (single isomer, unassigned; enantiomer 2) [Example 121, 4,4-difluoro-N-{4-[3-(3-fluoroanilino)-6,6-dimethyl-4-oxo-4,5,6,7-tetrahydro-1H-pyrrolo[3,2-c]pyridin-2-yl]pyridin-2-yl}-2-(4-fluorophenyl)butanamide (Enantiomer 2)], the IC50 was 70.1 nM in assay [1], 10200 nM in assay [2], 63.5 nM in assay [3] and over 20000 nM in assay [4] (setting [6]).

Consider `O=C1NC2(CCC2)Cc2[nH]c(-c3ccnc(NC(=O)C(CC(F)F)c4ccc(F)cc4)c3)c(Nc3cccc(F)c3Cl)c21` (single isomer, unassigned; enantiomer 2) [Example 125, (+)-N-{4-[3′-(2-chloro-3-fluoroanilino)-4′-oxo-1′,4′,5′,7′-tetrahydrospiro[cyclobutane-1,6′-pyrrolo[3,2-c]pyridin]-2′-yl]pyridin-2-yl}-4,4-difluoro-2-(4-fluorophenyl)butanamide (Enantiomer 2)], for which the IC50 in assay [1] was 10.5 nM; in assay [2] it was 12.1 nM; in assay [3], 9.39 nM; in assay [4] (setting [6]), over 20000 nM.

`CC1(C)Cc2[nH]c(-c3ccnc(NC(=O)C(CC(F)F)c4ccc(F)cc4)c3)c(Nc3cccc(F)n3)c2C(=O)N1` (single isomer, unassigned; enantiomer 2) [Example 130, 4,4-difluoro-2-(4-fluorophenyl)-N-(4-{3-[(6-fluoropyridin-2-yl)amino]-6,6-dimethyl-4-oxo-4,5,6,7-tetrahydro-1H-pyrrolo[3,2-c]pyridin-2-yl}pyridin-2-yl)butanamide (Enantiomer 2)]: the IC50 in assay [1] is 26.7 nM; in assay [2], 1340 nM; in assay [3] it was 71.6 nM; in assay [4] (setting [6]), over 20000 nM.

`Cc1ccccc1Nc1c(-c2ccnc(NC(=O)C(C)c3ccc(F)cc3)c2)[nH]c2c1C(=O)NC(C)(C)C2` (single isomer, unassigned; enantiomer 2) [Example 134, N-{4-[6,6-dimethyl-3-(2-methylanilino)-4-oxo-4,5,6,7-tetrahydro-1H-pyrrolo[3,2-c]pyridin-2-yl]pyridin-2-yl}-2-(4-fluorophenyl)propanamide (Enantiomer 2)]: the IC50 was 19.1 nM in assay [1], 304 nM in assay [2], 45.9 nM in assay [3] and over 20000 nM in assay [4] (setting [5]).

As to `Cc1ccccc1Nc1c(-c2ccnc(NC(=O)C(CC(F)F)c3ccc(F)cc3)c2)[nH]c2c1C(=O)NC(C)(C)C2` (single isomer, unassigned; enantiomer 2) [Example 137, N-{4-[6,6-dimethyl-3-(2-methylanilino)-4-oxo-4,5,6,7-tetrahydro-1H-pyrrolo[3,2-c]pyridin-2-yl]pyridin-2-yl}-4,4-difluoro-2-(4-fluorophenyl)butanamide (Enantiomer 2)], the IC50 is 42.2 nM in assay [1], 451 nM in assay [2], 82.7 nM in assay [3] and over 20000 nM in assay [4] (setting [6]).

`CC1(C)Cc2[nH]c(-c3ccnc(NC(=O)C(CN)c4ccc(F)cc4)c3)c(Nc3ccccc3)c2C(=O)N1` (single isomer, unassigned; enantiomer 2) [Example 141, 3-amino-N-[4-(3-anilino-6,6-dimethyl-4-oxo-4,5,6,7-tetrahydro-1H-pyrrolo[3,2-c]pyridin-2-yl)pyridin-2-yl]-2-(4-fluorophenyl)propanamide (Enantiomer 2)]: the IC50 in assay [1] was 57.8 nM; in assay [2], 599 nM; in assay [3], 127 nM; in assay [4] (setting [6]) it was over 20000 nM.

`Cc1ccccc1Nc1c(-c2ccnc(NC(=O)C(CC(F)F)c3ccc(F)cc3)c2)[nH]c2c1C(=O)NC1(CCC1)C2` (single isomer, unassigned; enantiomer 2) [Example 145, (+)-4,4-difluoro-2-(4-fluorophenyl)-N-{4-[3′-(2-methylanilino)-4′-oxo-1′,4′,5′,7′-tetrahydrospiro[cyclobutane-1,6′-pyrrolo[3,2-c]pyridin]-2′-yl]pyridin-2-yl}butanamide-(Enantiomer 2)]: the IC50 in assay [1] was 10.7 nM; in assay [2], 14.8 nM; in assay [3], 8.21 nM; in assay [4] (setting [6]), over 20000 nM.

As to `O=C1NC2(CC2)Cc2[nH]c(-c3ccnc(NC(=O)C(CC(F)F)c4ccc(F)cc4)c3)c(Nc3ccccc3)c21` (single isomer, unassigned; enantiomer 2) [Example 149, N-[4-(3′-anilino-4′-oxo-1′,4′,5′,7′-tetrahydrospiro[cyclopropane-1,6′-pyrrolo[3,2-c]pyridin]-2′-yl)pyridin-2-yl]-4,4-difluoro-2-(4-fluorophenyl)butanamide (Enantiomer 2)], the IC50 in assay [1] was found to be 40.4 nM; in assay [2] it was 473 nM; in assay [3], 39.4 nM; in assay [4] (setting [5]) it was 16700 nM.
